The supplement of paper PMC7695840
Structures can show the parent of a compound that is named as a salt.

What was measured:
[1] = tested on: Staphylococcus aureus MW2 delta-mecA (mecA-); assay: IC50 (growth, competition assay); settings: cefoxitin: subinhibitory
How it was run: (§1)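 Per plate, DsRed (540/590) and GFP (485/520) readings were normalized between the medians of the single-strain controls, after which No Treatment was fixed at 0.5. These readings came from a 1:1 mix of pre-induced fluorescent S. aureus MW2 strains with and without the resistance gene, grown for 20 h at 37 °C and 90% humidity, unshaken, in LB with a daily-set subinhibitory drug dose in 1536-well plates. Per-strain IC50 meant the dose halving the No Treatment signal, or the maximal signal.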

[2] = tested on: Staphylococcus aureus MW2 (mecA+); assay: IC50 (growth, competition assay); settings: cefoxitin: subinhibitory
How it was run: as §1

SMILES | IC50 ([1]; fluorescent label: DsRed) [µM] | IC50 ([1]; fluorescent label: GFP) [µM] | IC50 ([2]; fluorescent label: DsRed) [µM] | IC50 ([2]; fluorescent label: GFP) [µM]
CCOc1nc2cccc(C(=O)OC(C)OC(=O)OC3CCCCC3)c2n1Cc1ccc(-c2ccccc2-c2nn[nH]n2)cc1 (configuration not stated) [ATACAND] | < 9.85 | < 9.85 | 9.89 | 14.8
O=C(/C=C/c1ccccc1)c1ccc(O)cc1O [2',4'-DIHYDROXYCHALCONE] | 18.7 | 17.1 | 91.7 | 111
CC1(C)S[C@@H]2[C@H](NC(=O)[C@H](NC(=O)N3CCNC3=O)c3ccccc3)C(=O)N2[C@H]1C(=O)O [AZLIN] | < 9.85 | < 9.85 | 32.2 | 47.2
CCCc1c(-c2ccc(O)cc2)nn(-c2ccc(O)cc2)c1-c1ccc(O)cc1 [1,3,5-tris(4-hydroxyphenyl)-4-propyl-1H-pyrazole] | < 9.85 | < 9.85 | 12.5 | 20.3
O=C(O[C@@H]1Cc2c(O)cc(O)cc2O[C@@H]1c1cc(O)c(O)c(O)c1)c1cc(O)c(O)c(O)c1 [EPIGALLOCATECHIN-3-MONOGALLATE] | < 9.85 | < 9.85 | 45.2 | 63.3
CCCCC(CC)COC(=O)CC(C(=O)OCC(CC)CCCC)S(=O)(=O)O (configuration not stated) [COLACE] | 18 | 13.5 | 56.6 | 52.5
CCN(CC)CCOc1ccc(C(=C(Cl)c2ccccc2)c2ccccc2)cc1 [CLOMID] | 15.5 | < 9.85 | 23.7 | 34.5
CC1(C)S[C@@H]2[C@H](NC(=O)C(C(=O)O)c3ccccc3)C(=O)N2[C@H]1C(=O)O (some centres not stated) [CARBECIN] | < 9.85 | < 9.85 | 23.7 | 36.6
CSc1ccc2c(c1)C(N1CCN(C)CC1)Cc1ccccc1S2 (configuration not stated) [Methiothepin mesylate] | 21.3 | 19.1 | 56.7 | 55.3
CCN1CCN(C(=O)N[C@@H](C(=O)N[C@@H]2C(=O)N3C(C(=O)O)=C(CSc4nnnn4C)CS[C@H]23)c2ccc(O)cc2)C(=O)C1=O [Cefoperazone (Cefobid)] | < 0.498 | < 0.498 | 4.66 | 6.86
Cc1ccc(S(=O)(=O)C=CC#N)cc1 [BAY 11-7082 (BAY 11-7821)] | < 9.85 | < 9.85 | < 9.85 | 9.88
CN[C@H]1CC[C@@H](c2ccc(Cl)c(Cl)c2)c2ccccc21 [Sertraline HCl] | 12 | < 9.85 | 94.5 | 111
CC(=O)Oc1ccccc1C(=O)Nc1ncc([N+](=O)[O-])s1 [Nitazoxanide (Alinia, Annita)] | 21.9 | 24.9 | 55.5 | 57.6
CC(C)(Oc1ccc(C2CC2(Cl)Cl)cc1)C(=O)O (configuration not stated) [Ciprofibrate] | 21.6 | 30.6 | 93.1 | 107
CN1CCN(CCCN2c3ccccc3Sc3ccc(Cl)cc32)CC1 [Prochlorperazine dimaleate] | 21.5 | 18 | 56.2 | 54.5
Cc1onc(-c2c(Cl)cccc2Cl)c1C(=O)N[C@@H]1C(=O)N2[C@@H]1SC(C)(C)[C@@H]2C(=O)O [DYNAPEN] | < 9.85 | < 9.85 | < 9.85 | < 9.85
CNCc1ccc(C)c(NC(=O)c2ccc(Nc3nc(-c4ccccc4)c4ccccc4n3)cc2)c1 | < 9.85 | < 9.85 | 15.9 | 14.5
O=C(O)CCCCC(CCSCc1ccccc1)SCc1ccccc1 (configuration not stated) [CPI-613] | < 9.85 | < 9.85 | 15.5 | 15
CCn1cc(C(=O)O)c(=O)c2ccc(C)nc21 [Nalidixic acid sodium] | 17.2 | 16.2 | 34 | 29.8
CN1CCN(CCCN2c3ccccc3Sc3ccc(C(F)(F)F)cc32)CC1 [Trifluoperazine 2HCl] | 16.5 | 14.5 | 56.9 | 57.1
CC[C@H]1OC(=O)[C@H](C)[C@@H](O[C@H]2C[C@@](C)(OC)[C@@H](O)[C@H](C)O2)[C@H](C)[C@@H](O[C@@H]2O[C@H](C)C[C@H](N(C)C)[C@H]2O)[C@](C)(O)C[C@@H](C)C(=O)[C@H](C)[C@@H](O)[C@]1(C)O [ERYDERM] | < 9.85 | < 9.85 | < 9.85 | < 9.85
COCC(=O)O[C@]1(CCN(C)CCCc2nc3ccccc3[nH]2)CCc2cc(F)ccc2[C@@H]1C(C)C [Mibefradil dihydrochloride] | 16.4 | 11.2 | 41.1 | 51.9
NS(=O)(=O)c1ccc(-n2nc(C(F)(F)F)cc2-c2ccc(Cl)cc2)cc1 [SC-236] | 26.4 | 16.3 | 94.1 | 97.3
CC(=O)/C=C1/C(=O)N(C)c2ccccc21 [Supercinnamaldehyde] | < 9.85 | < 9.85 | 46.8 | 60.4
CC[C@H]1OC(=O)[C@H](C)[C@@H](O[C@H]2C[C@@](C)(OC)[C@@H](O)[C@H](C)O2)[C@H](C)[C@@H](O[C@@H]2O[C@H](C)C[C@H](N(C)C)[C@H]2O)[C@](C)(O)C[C@@H](C)[C@@H]2N[C@@H](COCCOC)O[C@H]([C@H]2C)[C@]1(C)O [DYNABAC] | < 9.85 | < 9.85 | 21.4 | 21.3
Oc1c(Br)cc(Br)c2cccnc12 [FENILOR] | < 9.85 | < 9.85 | < 9.85 | 13.6
C=C1C(=O)[C@]23[C@H](O)[C@H]1CC[C@H]2[C@@]12CO[C@]3(O)[C@@H](O)[C@@H]1C(C)(C)CC[C@@H]2O [Oridonin (Isodonol)] | 13.7 | < 9.85 | 29.5 | 51.5
COc1ccc([C@@H](C)C(=O)c2ccc(O)cc2O)cc1 [ANGOLENSIN (R)] | < 9.85 | < 9.85 | 22.3 | 27.7
